# In patent publication US3974140A, “Ureidoacetamido-penicillins” (Bayer Aktiengesellschaft, priority 1970, dated 1976):
# Assays:
# Proteus vulg. 1017 = test: MIC, liquid medium test tube series dilution test; assay type: cell-based, Proteus vulgaris; conditions: Proteus vulg. 1017, 24 hours, 37°C
# How it was run: (§1)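 In this in vitro test, growth inhibition is judged by absence of turbidity across a dilution series in complete nutrient broth. Readings are made after 24 hours at 37°C, with values given in units/ml.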
# Proteus vulg. 3400 = test: MIC, liquid medium test tube series dilution test; assay type: cell-based, Proteus vulgaris; conditions: Proteus vulg. 3400, 24 hours, 37°C
# How it was run: as §1
# Staph. aureus 133 [1] = test: Surviving mice after intraperitoneal infection and subcutaneous therapy; assay type: in vivo, white mice, CF1 strain; conditions: 2 × 200 units/mouse s.c.
# Experimental: The experiments on animals (see Table 3) were carried out with white mice of the CF1 strain. The infection took place intraperitoneally with the particular bacterium indicated.
# E. coli 14 = test: MIC, liquid medium test tube series dilution test; assay type: cell-based; conditions: E. coli 14, 24 hours, 37°C
# How it was run: as §1
# Klebsiella K 10 = test: MIC, liquid medium test tube series dilution test; assay type: cell-based; conditions: Klebsiella K 10, 24 hours, 37°C
# How it was run: as §1
# Klebsiella 63 = test: MIC, liquid medium test tube series dilution test; assay type: cell-based; conditions: Klebsiella 63, 24 hours, 37°C
# How it was run: as §1
# E. coli A 261 = test: MIC, liquid medium test tube series dilution test; assay type: cell-based; conditions: E. coli A 261, 24 hours, 37°C
# How it was run: as §1
# [2] = system: Streptoc. faec. ATCC 9790; test: MIC, liquid medium test tube series dilution test; assay type: cell-based; conditions: Strep. faec. (Enterococcus) ATCC 9790, 24 hours, 37°C
# How it was run: as §1
# E. coli 183/58 = test: MIC, liquid medium test tube series dilution test; assay type: cell-based; conditions: E. coli 183/58, 24 hours, 37°C
# How it was run: as §1
# E. coli C 165 = test: MIC, liquid medium test tube series dilution test; assay type: cell-based; conditions: E. coli C 165, 24 hours, 37°C
# How it was run: as §1
# Staph. aureus 1777 E = test: MIC, liquid medium test tube series dilution test; assay type: cell-based, Staphylococcus aureus; conditions: 24 hours, 37°C
# How it was run: as §1
# Staph. aureus 133 [3] = test: MIC, liquid medium test tube series dilution test; assay type: cell-based, Staphylococcus aureus; conditions: Staph. aureus 133, 24 hours, 37°C
# How it was run: as §1
# [4] = Serum level after subcutaneous administration, measured from microbiological activity against Proteus vulgaris 1017; assay type: in vivo, white mice; conditions: 150.000 units s.c.
# Text: Serum level after subcutaneous ("s.c.") administration to white mice, in units/ml of serum, measured from the microbiological activity against Proteus vulgaris 1017 (ampicillin-resistant).
# Acid stability = assay type: physicochemical; conditions: pH 1 where stated
# Psdm. aerug. Walter = test: MIC, liquid medium test tube series dilution test; assay type: cell-based, Pseudomonas aerug.; conditions: 24 hours, 37°C
# How it was run: as §1
# Psdm. aerug. Bonn = test: MIC, liquid medium test tube series dilution test; assay type: cell-based, Pseudomonas aerug.; conditions: 24 hours, 37°C
# How it was run: as §1
# [5] = system: Gram-negative and Gram-positive bacteria; test: Antibacterial effect, general statements; conditions: MIC comparison
Structure (SMILES),MIC (Proteus vulg. 1017),MIC (Proteus vulg. 3400),MIC (E. coli 14),MIC (Klebsiella K 10),MIC (Klebsiella 63),MIC (E. coli A 261),MIC [2],MIC (E. coli 183/58),MIC (E. coli C 165),MIC (Staph. aureus 1777 E),MIC (Staph. aureus 133 [3]),MIC (Psdm. aerug. Walter),MIC (Psdm. aerug. Bonn),Biological activity compared between penicillin (A) and penicillin (B) [5],further results
"CN(C(=O)N[C@@H](C(=O)N[C@@H]1C(=O)N2[C@@H]1SC(C)(C)[C@@H]2C(=O)O)c1ccccc1)C(=O)c1ccccc1 [Example 59, Sodium D(-)-α-(3-benzoyl-3-methyl-ureido)-benzylpenicillin]",6.25 units/ml,12.5 units/ml,1.56 units/ml,25 units/ml,50 units/ml,> 400 units/ml,100 units/ml,3.12 units/ml,6.25 units/ml,100 units/ml,< 0.78 units/ml,25 units/ml,12.5 units/ml,,Number of surviving mice (Staph. aureus 133 [1]; 1 day): 90%; Number of surviving mice (Staph. aureus 133 [1]; 2 days): 70%; Number of surviving mice (Staph. aureus 133 [1]; 3 days): 70%; Number of surviving mice (Staph. aureus 133 [1]; 5 days): 70%; Serum level ([4]; 15 mins.): 25 units/ml of serum; Serum level ([4]; 30 mins.): 20 units/ml of serum; Serum level ([4]; 60 mins.): < 2 units/ml of serum; Stability to acid (Acid stability): remain microbiologically active at pH 1 for over one hour
"CN(C(=O)N[C@@H](C(=O)N[C@@H]1C(=O)N2[C@@H]1SC(C)(C)[C@@H]2C(=O)O)c1ccccc1)C(=O)OC1CCCCC1 [Example 67, Sodium D(-)-α-(3-cyclohexyloxycarbonyl-3-methyl-ureido)-benzylpenicillin]",6.25 units/ml,6.25 units/ml,1.56 units/ml,100 units/ml,100 units/ml,400 units/ml,100 units/ml,1.56 units/ml,6.25 units/ml,400 units/ml,< 0.78 units/ml,50 units/ml,25 units/ml,identical within the limit of error,MIC (Proteus vulg. 1017; listed as (B) of Example 29): 6.25 units/ml; MIC (Proteus vulg. 3400; listed as (B) of Example 29): 6.25 units/ml; MIC (E. coli 14; listed as (B) of Example 29): 1.56 units/ml; MIC (Klebsiella K 10; listed as (B) of Example 29): 100 units/ml; MIC (E. coli A 261; listed as (B) of Example 29): 400 units/ml; MIC (E. coli 183/58; listed as (B) of Example 29): 1.56 units/ml; MIC (E. coli C 165; listed as (B) of Example 29): 6.25 units/ml; MIC (Staph. aureus 133 [3]; listed as (B) of Example 29): < 0.7 units/ml
"C=CCOC(=O)N(C)C(=O)N[C@@H](C(=O)N[C@@H]1C(=O)N2[C@@H]1SC(C)(C)[C@@H]2C(=O)O)c1ccccc1 [Example 68, Sodium D(-)-α-(3-allyloxycarbonyl-3-methyl-ureido)-benzylpenicillin]",12.5 units/ml,25 units/ml,3.12 units/ml,50 units/ml,25 units/ml,> 400 units/ml,50 units/ml,6.25 units/ml,12.5 units/ml,50 units/ml,< 0.78 units/ml,12.5 units/ml,12.5 units/ml,identical within the limit of error,MIC (Proteus vulg. 1017; listed as (B) of Example 30): 12.5 units/ml; MIC (Proteus vulg. 3400; listed as (B) of Example 30): 25 units/ml; MIC (E. coli 14; listed as (B) of Example 30): 3.12 units/ml; MIC (Klebsiella K 10; listed as (B) of Example 30): 50 units/ml; MIC (Klebsiella 63; listed as (B) of Example 30): 25 units/ml; MIC ([2]; listed as (B) of Example 30): 50 units/ml; MIC (E. coli 183/58; listed as (B) of Example 30): 6.25 units/ml; MIC (E. coli C 165; listed as (B) of Example 30): 12.5 units/ml; MIC (Staph. aureus 133 [3]; listed as (B) of Example 30): 0.78 units/ml; MIC (Psdm. aerug. Walter; listed as (B) of Example 30): 12.5 units/ml; MIC (Psdm. aerug. Bonn; listed as (B) of Example 30): 12.5 units/ml
